Patent US4710578A, “Isothiuronium salts” (Peremartoni Vegyipari Vallalat, priority 1984, dated 1987)

Experiments:
[1] = in vivo
[2] = system: neutrophylic granulocytes and limphocytes; conditions: mouse, in vivo, po
[3] = system: neutrophilic granulocytes, lymphocytes and macrophages; experiment: Preliminary rapid test: immunostimulant effect; format: in vivo, CFLP male mice; conditions: oral, one-tenth of LD50; 24 hours
[4] = system: NK-ly-ascites lymphoma; experiment: NK-ly-ascites lymphoma in vivo; set-up: species or system CFLP male mice; conditions: for Activity against NK-ly-ascites tumor: concentration below one-tenth of the LD50 value; for Survival rate and lifetime: dose-dependant
[5] = system: NK-yl ascites tumor; experiment: Combinations with known cytostatic agents in NK-ly ascites tumor; format: in vivo, CFLP mice; conditions: with cyclophosphamide, carnomustine, degranol, dibromo dulcitol or dibromo mannitol

| Compound | LD50 at 24 h ([1]; po) [mg/kg] | Toxic effect [2] | Immunostimulant effect [3] | LD50 at 24 h ([1]; ip) [mg/kg] | Activity against NK-ly-ascites tumor [4] | Survival rate and lifetime [4] | Antitumor effect of combination vs cytostatic agent alone [5] | Immunodepression of combination vs cytostatic agent alone [5] |
| --- | --- | --- | --- | --- | --- | --- | --- | --- |
| CC(C)CCSC(=N)NC(=N)N [Example 26, N-aminoiminomethyl-S-isoamyl-isothiuronium bromide] | 2260 ± 241 | 0 | medium (Medium effect is observed if the increase of cell number or activity over the control amounts to 20%) |  |  |  |  |  |
| N=C(N)NC(=N)SCCCO [Example 29, N-aminoiminomethyl-S-(3-hydroxy-propyl)-isothiuronium bromide] | 2860 ± 180 | 0 | medium (Medium effect is observed if the increase of cell number or activity over the control amounts to 20%) |  |  |  |  |  |
| CCSC(=N)NC(=N)N [Example 23, N-aminoiminomethyl-S-ethyl-isothiuronium bromide] | 3080 ± 290 | 0 | strong (The effect is strong if the increase of the cell number and activity of the immune system is more than 20% higher than the control) |  |  |  |  |  |
| CSC(=N)NC(=N)N [Example 9, N-Aminoiminomethyl-S-Methyl-Isothiuronium Iodide] | 2320 ± 220 |  | medium (Medium effect is observed if the increase of cell number or activity over the control amounts to 20%) |  |  |  |  |  |
| C=CCSC(=NC)NC(=N)N [Example 20, N-Aminoiminomethyl-N'-Methyl-S-Allyl-Isothiuronium Chloride] | 600 ± 54 | 0 | weak | 75 ± 6.3 | active agains Nk-ly-ascites tumor in a concentration below one-tenth of the LD50 value | increase survival rate and lifetime in a dose-dependant manner |  |  |
| C#CCSC(=N)NC(=N)N [Example 31, N-aminoiminomethyl-S-propargyl-isothuronium bromide] | 90 |  |  |  |  |  |  |  |
| CC(C)SC(=N)NC(=N)N [Example 24, N-aminoiminomethyl-S-isopropyl-isothiuronium bromide] | 2260 ± 210 | 0 | medium (Medium effect is observed if the increase of cell number or activity over the control amounts to 20%) |  |  |  |  |  |
| C=CCSC(=NC(C)C)NC(=N)N [Example 21, N-aminoiminomethyl-N'-Isopropyl-S-Allyl-Isothiuronium Chloride] | 280 ± 26 | 0 | weak | 32 ± 4 |  |  |  |  |
| CCCSC(=N)NC(=N)N [Example 10, N-Aminoiminomethyl-S-n-Propyl-Isothuronium Bromide] | 2800 ± 260 | 0 | medium (Medium effect is observed if the increase of cell number or activity over the control amounts to 20%) |  |  |  |  |  |
| C=C(C)CSC(=N)NC(=N)N [Example 44, N-(Aminoiminomethyl)-S-Metallyl-Isothiuronium-Bromide] | 1640 ± 210 | 0 | medium (Medium effect is observed if the increase of cell number or activity over the control amounts to 20%) |  |  |  |  |  |
| CCCCSC(=N)NC(=N)N [Example 25, N-aminoiminomethyl-S-n-butyl-isothiuronium bromide] | 2700 ± 310 | 0 | medium (Medium effect is observed if the increase of cell number or activity over the control amounts to 20%) |  |  |  |  |  |
| C=CCN=C(NC(=N)N)SCC=C [Example 45, N-(Aminoiminomethyl)-N'-Allyl-S-Allyl-Isothiuronium Bromide] | 380 ± 41 | 0 | weak | 36 ± 4 | active agains Nk-ly-ascites tumor in a concentration below one-tenth of the LD50 value | increase survival rate and lifetime in a dose-dependant manner | the antitumor effect was strengthened | immunodepression decreased |
